Experimental data as given in patent US11331369B2, “Endoparasitic depsipeptides” (Zoetis Services LLC, priority 2017, dated 2022).

Tested on: microfilariae of Dirofilaria immitis
Assay: Dirofilaria immitis, Microfilaria (DiMF) In vitro Assay
Assay type: cell-based
Conditions: 72 h, read-out: DiMF Minimum Effective Dose (MED), approximately 72 hours incubation, microfilariae assessed for survival or paralysis

| Compound | minimal effective concentration [µM] |
| --- | --- |
| Cc1nn(Cc2ccc(C[C@H]3OC(=O)[C@H](CC(C)C)N(C)C(=O)[C@@H](C)OC(=O)[C@H](CC(C)C)N(C)C(=O)[C@@H](Cc4ccccc4)OC(=O)[C@H](CC(C)C)N(C)C(=O)[C@@H](C)OC(=O)[C@H](CC(C)C)N(C)C3=O)cc2)c(C)c1Br [Example 2-17, (3S,6R,9S,12R,15S,18R,21S,24R)-6-benzyl-18-(4-((4-bromo-3,5-dimethyl-1H-pyrazol-1-yl)methyl)benzyl)-3,9,15,21-tetraisobutyl-4,10,12,16,22,24-hexamethyl-1,7,13,19-tetraoxa-4,10,16,22-tetraazacyclotetracosan-2,5,8,11,14,17,20,23-octaone] | 0.01 to 0.1 |
| CC(C)C[C@H]1C(=O)O[C@H](Cc2ccc(Cn3ccc(CO)n3)cc2)C(=O)N(C)[C@@H](CC(C)C)C(=O)O[C@H](C)C(=O)N(C)[C@@H](CC(C)C)C(=O)O[C@H](Cc2ccc(Cn3ccc(CO)n3)cc2)C(=O)N(C)[C@@H](CC(C)C)C(=O)O[C@H](C)C(=O)N1C [Example 1b-97, (3S,6R,9S,12R,15S,18R,21S,24R)-6,18-bis(4-((3-(hydroxymethyl)-1H-pyrazol-1-yl)methyl)benzyl)-3,9,15,21-tetraisobutyl-4,10,12,16,22,24-hexamethyl-1,7,13,19-tetraoxa-4,10,16,22-tetraazacyclotetracosan-2,5,8,11,14,17,20,23-octaone] | 0.01 to 0.1 |
| CC(C)C[C@H]1C(=O)O[C@H](Cc2ccc(Cn3ccc(C(C)C)n3)cc2)C(=O)N(C)[C@@H](CC(C)C)C(=O)O[C@H](C)C(=O)N(C)[C@@H](CC(C)C)C(=O)O[C@H](Cc2ccccc2)C(=O)N(C)[C@@H](CC(C)C)C(=O)O[C@H](C)C(=O)N1C [Example 2-83, (3S,6R,9S,12R,15S,18R,21S,24R)-6-benzyl-3,9,15,21-tetraisobutyl-18-(4-((3-isopropyl-1H-pyrazol-1-yl)methyl)benzyl)-4,10,12,16,22,24-hexamethyl-1,7,13,19-tetraoxa-4,10,16,22-tetraazacyclotetracosan-2,5,8,11,14,17,20,23-octaone] | 0.01 to 0.1 |
| CCc1nn(Cc2ccc(C[C@H]3OC(=O)[C@H](CC(C)C)N(C)C(=O)[C@@H](C)OC(=O)[C@H](CC(C)C)N(C)C(=O)[C@@H](Cc4ccccc4)OC(=O)[C@H](CC(C)C)N(C)C(=O)[C@@H](C)OC(=O)[C@H](CC(C)C)N(C)C3=O)cc2)c(CC)c1[N+](=O)[O-] [Example 2-82, (3S,6R,9S,12R,15S,18R,21S,24R)-6-benzyl-18-(4-((3,5-diethyl-4-nitro-1H-pyrazol-1-yl)methyl)benzyl)-3,9,15,21-tetraisobutyl-4,10,12,16,22,24-hexamethyl-1,7,13,19-tetraoxa-4,10,16,22-tetraazacyclotetracosan-2,5,8,11,14,17,20,23-octaone] | 0.01 to 0.1 |
| CC(=O)Nc1c(C)nn(Cc2ccc(C[C@H]3OC(=O)[C@H](CC(C)C)N(C)C(=O)[C@@H](C)OC(=O)[C@H](CC(C)C)N(C)C(=O)[C@@H](Cc4ccccc4)OC(=O)[C@H](CC(C)C)N(C)C(=O)[C@@H](C)OC(=O)[C@H](CC(C)C)N(C)C3=O)cc2)c1C [Example 2-43, N-(1-(4-(((2R,5S,8R,11S,14R,17S,20R,23S)-14-benzyl-5,11,17,23-tetraisobutyl-4,8,10,16,20,22-hexamethyl-3,6,9,12,15,18,21,24-octaoxo-1,7,13,19-tetraoxa-4,10,16,22-tetraazacyclotetracosan-2-yl)methyl)benzyl)-3,5-dimethyl-1H-pyrazol-4-yl)acetamide] | 0.01 to 0.1 |
| CC(C)C[C@H]1C(=O)O[C@H](Cc2ccc(Cn3nnc4ccccc43)cc2)C(=O)N(C)[C@@H](CC(C)C)C(=O)O[C@H](C)C(=O)N(C)[C@@H](CC(C)C)C(=O)O[C@H](Cc2ccc(Cn3nnc4ccccc43)cc2)C(=O)N(C)[C@@H](CC(C)C)C(=O)O[C@H](C)C(=O)N1C [Example 9-29, (3S,6R,9S,12R,15S,18R,21S,24R)-6,18-bis(4-((1H-benzo[d][1,2,3]triazol-1-yl)methyl)benzyl)-3,9,15,21-tetraisobutyl-4,10,12,16,22,24-hexamethyl-1,7,13,19-tetraoxa-4,10,16,22-tetraazacyclotetracosan-2,5,8,11,14,17,20,23-octaone] | 0.01 to 0.1 |
| CC(C)C[C@H]1C(=O)O[C@H](Cc2ccc(Cn3cc(C(F)F)cn3)cc2)C(=O)N(C)[C@@H](CC(C)C)C(=O)O[C@H](C)C(=O)N(C)[C@@H](CC(C)C)C(=O)O[C@H](Cc2ccccc2)C(=O)N(C)[C@@H](CC(C)C)C(=O)O[C@H](C)C(=O)N1C [Example 2-18, (3S,6R,9S,12R,15S,18R,21S,24R)-6-benzyl-18-(4-((4-(difluoromethyl)-1H-pyrazol-1-yl)methyl)benzyl)-3,9,15,21-tetraisobutyl-4,10,12,16,22,24-hexamethyl-1,7,13,19-tetraoxa-4,10,16,22-tetraazacyclotetracosan-2,5,8,11,14,17,20,23-octaone] | 0.001 to 0.01 |
| CC(C)C[C@H]1C(=O)O[C@H](Cc2ccc(Cn3cc(N4CCCCC4)cn3)cc2)C(=O)N(C)[C@@H](CC(C)C)C(=O)O[C@H](C)C(=O)N(C)[C@@H](CC(C)C)C(=O)O[C@H](Cc2ccc(Cn3cc(N4CCCCC4)cn3)cc2)C(=O)N(C)[C@@H](CC(C)C)C(=O)O[C@H](C)C(=O)N1C [Example 1b-183, (3S,6R,9S,12R,15S,18R,21S,24R)-3,9,15,21-tetraisobutyl-4,6,10,16,18,22-hexamethyl-12,24-bis(4-((4-(piperidin-1-yl)-1H-pyrazol-1-yl)methyl)benzyl)-1,7,13,19-tetraoxa-4,10,16,22-tetraazacyclotetracosan-2,5,8,11,14,17,20,23-octaone] | 0.01 to 0.1 |
| CC(C)C[C@H]1C(=O)O[C@H](Cc2ccc(CN3CCS(=O)(=O)c4cccnc43)cc2)C(=O)N(C)[C@@H](CC(C)C)C(=O)O[C@H](C)C(=O)N(C)[C@@H](CC(C)C)C(=O)O[C@H](Cc2ccc(CN3CCS(=O)(=O)c4cccnc43)cc2)C(=O)N(C)[C@@H](CC(C)C)C(=O)O[C@H](C)C(=O)N1C [Example 9-62, (3S,6R,9S,12R,15S,18R,21S,24R)-6,18-bis(4-((1,1-dioxido-2,3-dihydro-4H-pyrido[3,2-b][1,4]thiazin-4-yl)methyl)benzyl)-3,9,15,21-tetraisobutyl-4,10,12,16,22,24-hexamethyl-1,7,13,19-tetraoxa-4,10,16,22-tetraazacyclotetracosan-2,5,8,11,14,17,20,23-octaone] | 0.01 to 0.1 |
| CCc1cnn(Cc2ccc(C[C@H]3OC(=O)[C@H](CC(C)C)N(C)C(=O)[C@@H](C)OC(=O)[C@H](CC(C)C)N(C)C(=O)[C@@H](Cc4ccccc4)OC(=O)[C@H](CC(C)C)N(C)C(=O)[C@@H](C)OC(=O)[C@H](CC(C)C)N(C)C3=O)cc2)c1 [Example 2-9, (3S,6R,9S,12R,15S,18R,21S,24R)-6-benzyl-18-[[4-[(4-ethylpyrazol-1-yl)methyl]phenyl]methyl]-3,9,15,21-tetraisobutyl-4,10,12,16,22,24-hexamethyl-1,7,13,19-tetraoxa-4,10,16,22-tetrazacyclotetracosane-2,5,8,11,14,17,20,23-octaone] | 0.01 to 0.1 |
| CCOC(=O)c1cnn(Cc2ccc(C[C@H]3OC(=O)[C@H](CC(C)C)N(C)C(=O)[C@@H](C)OC(=O)[C@H](CC(C)C)N(C)C(=O)[C@@H](Cc4ccc(Cn5cc(C(=O)OCC)cn5)cc4)OC(=O)[C@H](CC(C)C)N(C)C(=O)[C@@H](C)OC(=O)[C@H](CC(C)C)N(C)C3=O)cc2)c1 [Example 1b-39, diethyl 1,1′-(((((2R,5S,8R,11S,14R,17S,20R,23S)-5,11,17,23-tetraisobutyl-4,8,10,16,20,22-hexamethyl-3,6,9,12,15,18,21,24-octaoxo-1,7,13,19-tetraoxa-4,10,16,22-tetraazacyclotetracosane-2,14-diyl)bis(methylene))bis(4,1-phenylene))bis(methylene))bis(1H-pyrazole-4-carboxylate)] | 0.01 to 0.1 |
| CCOc1c(C)nn(Cc2ccc(C[C@H]3OC(=O)[C@H](CC(C)C)N(C)C(=O)[C@@H](C)OC(=O)[C@H](CC(C)C)N(C)C(=O)[C@@H](Cc4ccc(Cn5nc(C)c(OCC)c5C)cc4)OC(=O)[C@H](CC(C)C)N(C)C(=O)[C@@H](C)OC(=O)[C@H](CC(C)C)N(C)C3=O)cc2)c1C [Example 1b-191, (3S,6R,9S,12R,15S,18R,21S,24R)-6,18-bis(4-((4-ethoxy-3,5-dimethyl-1H-pyrazol-1-yl)methyl)benzyl)-3,9,15,21-tetraisobutyl-4,10,12,16,22,24-hexamethyl-1,7,13,19-tetraoxa-4,10,16,22-tetraazacyclotetracosan-2,5,8,11,14,17,20,23-octaone] | 0.01 to 0.1 |
| CC(C)C[C@H]1C(=O)O[C@H](Cc2ccc(Cn3cc(NS(C)(=O)=O)cn3)cc2)C(=O)N(C)[C@@H](CC(C)C)C(=O)O[C@H](C)C(=O)N(C)[C@@H](CC(C)C)C(=O)O[C@H](Cc2ccccc2)C(=O)N(C)[C@@H](CC(C)C)C(=O)O[C@H](C)C(=O)N1C [Example 2-36, N-(1-(4-(((2R,5S,8R,11S,14R,17S,20R,23S)-14-benzyl-5,11,17,23-tetraisobutyl-4,8,10,16,20,22-hexamethyl-3,6,9,12,15,18,21,24-octaoxo-1,7,13,19-tetraoxa-4,10,16,22-tetraazacyclotetracosan-2-yl)methyl)benzyl)-1H-pyrazol-4-yl)methanesulfonamide] | 0.01 to 0.1 |
| CC(C)C[C@H]1C(=O)O[C@H](Cc2ccc(Cn3cc(-c4cnccn4)cn3)cc2)C(=O)N(C)[C@@H](CC(C)C)C(=O)O[C@H](C)C(=O)N(C)[C@@H](CC(C)C)C(=O)O[C@H](Cc2ccccc2)C(=O)N(C)[C@@H](CC(C)C)C(=O)O[C@H](C)C(=O)N1C [Example 2-46, (3S,6R,9S,12R,15S,18R,21S,24R)-6-benzyl-3,9,15,21-tetraisobutyl-4,10,12,16,22,24-hexamethyl-18-(4-((4-(pyrazin-2-yl)-1H-pyrazol-1-yl)methyl)benzyl)-1,7,13,19-tetraoxa-4,10,16,22-tetraazacyclotetracosan-2,5,8,11,14,17,20,23-octaone] | 0.001 to 0.01 |
